Results from ChEMBL document CHEMBL5465560, “Selectivity Literature for EUbOPEN Chemogenomic Library” (2024).

What was measured:
[1] = target: T1, Tyrosine-protein kinase TXK (Homo sapiens) (UniProt P42681); test: Selectivity interaction (KinomeScan (DiscoverX)) EUB0000229b TXK; settings: at 10 µM
T1 sequence (whole entry): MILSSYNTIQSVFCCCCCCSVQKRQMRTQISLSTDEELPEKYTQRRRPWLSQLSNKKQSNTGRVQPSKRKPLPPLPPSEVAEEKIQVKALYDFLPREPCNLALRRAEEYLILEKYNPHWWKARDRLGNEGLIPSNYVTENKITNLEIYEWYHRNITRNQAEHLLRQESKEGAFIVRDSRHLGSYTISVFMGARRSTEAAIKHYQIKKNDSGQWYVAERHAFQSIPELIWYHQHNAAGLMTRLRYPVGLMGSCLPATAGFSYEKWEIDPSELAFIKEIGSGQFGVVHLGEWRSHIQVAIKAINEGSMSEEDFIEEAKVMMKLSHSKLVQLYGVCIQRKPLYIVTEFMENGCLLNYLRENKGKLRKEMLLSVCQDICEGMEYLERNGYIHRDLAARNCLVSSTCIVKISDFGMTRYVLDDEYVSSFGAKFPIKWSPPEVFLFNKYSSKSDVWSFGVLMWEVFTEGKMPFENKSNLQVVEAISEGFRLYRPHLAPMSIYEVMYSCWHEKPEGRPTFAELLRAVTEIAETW

[2] = target: Angiopoietin-1 receptor (Homo sapiens) (UniProt Q02763); test: Selectivity interaction (KinomeScan (DiscoverX)) EUB0001079a TEK; settings: at 1 µM
[3] = target: Mitogen-activated protein kinase 7 (Homo sapiens) (UniProt Q13164); test: Selectivity interaction (KinomeScan (DiscoverX)) EUB0000666a MAPK7; settings: at 10 µM
[4] = tested on: Epidermal growth factor receptor (Homo sapiens), P00533 [T790M]; settings: at 10 µM
Chain of Epidermal growth factor receptor (Homo sapiens), P00533 [T790M] (P00533 whole entry T790M): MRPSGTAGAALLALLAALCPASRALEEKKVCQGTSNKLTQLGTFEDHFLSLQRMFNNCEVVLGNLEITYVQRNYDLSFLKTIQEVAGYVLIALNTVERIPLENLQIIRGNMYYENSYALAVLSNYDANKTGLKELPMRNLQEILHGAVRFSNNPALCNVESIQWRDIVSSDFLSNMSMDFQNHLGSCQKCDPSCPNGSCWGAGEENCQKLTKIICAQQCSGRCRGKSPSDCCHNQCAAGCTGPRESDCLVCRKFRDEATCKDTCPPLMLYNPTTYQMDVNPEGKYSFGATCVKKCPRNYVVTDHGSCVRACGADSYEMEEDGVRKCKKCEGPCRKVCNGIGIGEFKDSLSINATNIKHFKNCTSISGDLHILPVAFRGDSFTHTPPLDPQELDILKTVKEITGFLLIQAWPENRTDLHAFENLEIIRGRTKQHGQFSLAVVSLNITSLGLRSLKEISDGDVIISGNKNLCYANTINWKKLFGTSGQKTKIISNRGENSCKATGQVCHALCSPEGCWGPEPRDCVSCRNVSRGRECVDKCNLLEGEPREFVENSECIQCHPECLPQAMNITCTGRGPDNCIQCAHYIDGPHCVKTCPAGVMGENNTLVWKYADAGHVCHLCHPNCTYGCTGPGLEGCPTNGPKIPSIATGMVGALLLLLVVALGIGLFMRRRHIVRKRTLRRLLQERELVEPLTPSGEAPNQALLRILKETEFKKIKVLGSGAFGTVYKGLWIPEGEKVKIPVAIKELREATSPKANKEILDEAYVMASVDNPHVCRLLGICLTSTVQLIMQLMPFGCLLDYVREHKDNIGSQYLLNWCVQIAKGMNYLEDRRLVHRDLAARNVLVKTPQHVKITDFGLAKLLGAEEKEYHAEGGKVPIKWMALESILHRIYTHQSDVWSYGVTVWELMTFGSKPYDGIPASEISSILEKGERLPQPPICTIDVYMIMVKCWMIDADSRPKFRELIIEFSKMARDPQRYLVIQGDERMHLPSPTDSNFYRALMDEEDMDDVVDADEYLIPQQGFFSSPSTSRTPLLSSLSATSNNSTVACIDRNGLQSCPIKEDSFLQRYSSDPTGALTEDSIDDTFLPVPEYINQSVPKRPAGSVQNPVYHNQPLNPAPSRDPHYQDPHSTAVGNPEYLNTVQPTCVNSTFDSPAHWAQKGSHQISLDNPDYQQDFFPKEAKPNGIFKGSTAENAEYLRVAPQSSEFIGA

[5] = target: Beta-1 adrenergic receptor (Homo sapiens, UniProt P08588); test: Selectivity interaction (Eurofins CEREP Diversity Profile (receptors and ion channels)) EUB0000279b ADRB1; settings: at 10 µM
Chain of Beta-1 adrenergic receptor (P08588 whole entry, looked up): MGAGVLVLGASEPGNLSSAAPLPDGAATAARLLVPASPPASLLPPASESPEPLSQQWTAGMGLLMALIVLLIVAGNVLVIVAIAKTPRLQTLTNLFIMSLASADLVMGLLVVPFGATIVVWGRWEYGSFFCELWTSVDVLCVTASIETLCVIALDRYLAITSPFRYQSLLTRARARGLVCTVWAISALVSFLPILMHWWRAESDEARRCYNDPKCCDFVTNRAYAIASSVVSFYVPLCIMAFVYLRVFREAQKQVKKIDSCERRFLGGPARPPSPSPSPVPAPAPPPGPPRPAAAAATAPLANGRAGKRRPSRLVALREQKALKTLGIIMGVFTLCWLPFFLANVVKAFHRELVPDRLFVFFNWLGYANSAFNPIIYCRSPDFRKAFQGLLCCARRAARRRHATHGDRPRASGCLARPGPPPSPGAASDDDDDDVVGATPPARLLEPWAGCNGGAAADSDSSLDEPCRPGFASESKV

[6] = target: Proto-oncogene tyrosine-protein kinase Src (Homo sapiens, UniProt P12931); test: Selectivity interaction (KinomeScan (DiscoverX)) EUB0001619a SRC; settings: at 1 µM
Chain of Proto-oncogene tyrosine-protein kinase Src (P12931 2-536 limits assumed): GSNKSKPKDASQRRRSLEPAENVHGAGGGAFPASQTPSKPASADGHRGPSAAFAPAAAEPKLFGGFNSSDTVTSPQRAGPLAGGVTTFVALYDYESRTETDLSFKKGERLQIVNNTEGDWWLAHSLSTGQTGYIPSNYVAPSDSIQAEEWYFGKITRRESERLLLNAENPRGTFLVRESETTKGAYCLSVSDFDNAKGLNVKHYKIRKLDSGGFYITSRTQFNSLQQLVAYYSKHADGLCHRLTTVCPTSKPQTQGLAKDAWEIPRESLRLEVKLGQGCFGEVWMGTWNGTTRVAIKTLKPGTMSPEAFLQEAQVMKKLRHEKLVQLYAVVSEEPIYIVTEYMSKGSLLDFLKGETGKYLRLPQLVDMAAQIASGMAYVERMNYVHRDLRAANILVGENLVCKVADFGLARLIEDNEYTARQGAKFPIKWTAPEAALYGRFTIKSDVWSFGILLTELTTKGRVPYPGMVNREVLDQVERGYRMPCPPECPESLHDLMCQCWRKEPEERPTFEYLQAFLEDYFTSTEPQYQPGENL

Ephrin type-A receptor 4 = Ephrin type-A receptor 4 (Homo sapiens, UniProt P54764); test: Selectivity interaction (KinomeScan (DiscoverX)) EUB0001619a EPHA4; settings: at 1 µM
[7] = target: T2, Calcium/calmodulin-dependent protein kinase type IV (Homo sapiens) (UniProt Q16566); test: Selectivity interaction (SelectScreen profiling (Invitrogen)) EUB0000607a CAMK4; settings: at 2 µM
T2 sequence (whole entry): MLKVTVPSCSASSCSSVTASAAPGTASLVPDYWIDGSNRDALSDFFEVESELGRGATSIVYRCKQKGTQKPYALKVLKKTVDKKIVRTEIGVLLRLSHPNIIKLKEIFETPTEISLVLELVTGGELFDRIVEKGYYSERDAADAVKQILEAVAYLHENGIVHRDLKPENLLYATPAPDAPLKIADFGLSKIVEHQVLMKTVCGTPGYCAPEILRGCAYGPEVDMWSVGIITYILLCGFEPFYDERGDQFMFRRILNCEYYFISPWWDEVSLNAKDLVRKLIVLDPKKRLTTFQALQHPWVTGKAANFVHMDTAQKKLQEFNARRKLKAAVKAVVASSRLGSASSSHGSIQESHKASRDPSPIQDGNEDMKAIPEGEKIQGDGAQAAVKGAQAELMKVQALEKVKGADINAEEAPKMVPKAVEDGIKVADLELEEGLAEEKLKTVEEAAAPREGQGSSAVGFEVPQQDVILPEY

[8] = target: Serine/threonine-protein kinase 16 (Homo sapiens, UniProt O75716); test: Selectivity interaction (ActivX KiNativ screen (kinase selectivity in THP-1 cell lysates)) EUB0000639a STK16; assay type: subcellular; settings: lysate
Chain of Serine/threonine-protein kinase 16 (O75716 whole entry): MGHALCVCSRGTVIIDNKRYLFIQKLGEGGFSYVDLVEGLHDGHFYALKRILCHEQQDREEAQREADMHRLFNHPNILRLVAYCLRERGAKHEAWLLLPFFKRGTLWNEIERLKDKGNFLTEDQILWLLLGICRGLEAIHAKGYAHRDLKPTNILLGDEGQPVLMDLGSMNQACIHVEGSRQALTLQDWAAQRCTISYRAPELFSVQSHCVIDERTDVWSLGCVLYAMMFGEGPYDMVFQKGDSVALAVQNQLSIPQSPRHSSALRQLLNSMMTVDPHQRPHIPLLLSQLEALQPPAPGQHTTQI

[9] = target: T3, Ephrin type-B receptor 1 (Homo sapiens) (UniProt P54762); test: Selectivity interaction (Kinase panel (Invitrogen)) EUB0000639a EPHB1; settings: at 200 nM
T3 sequence (whole entry): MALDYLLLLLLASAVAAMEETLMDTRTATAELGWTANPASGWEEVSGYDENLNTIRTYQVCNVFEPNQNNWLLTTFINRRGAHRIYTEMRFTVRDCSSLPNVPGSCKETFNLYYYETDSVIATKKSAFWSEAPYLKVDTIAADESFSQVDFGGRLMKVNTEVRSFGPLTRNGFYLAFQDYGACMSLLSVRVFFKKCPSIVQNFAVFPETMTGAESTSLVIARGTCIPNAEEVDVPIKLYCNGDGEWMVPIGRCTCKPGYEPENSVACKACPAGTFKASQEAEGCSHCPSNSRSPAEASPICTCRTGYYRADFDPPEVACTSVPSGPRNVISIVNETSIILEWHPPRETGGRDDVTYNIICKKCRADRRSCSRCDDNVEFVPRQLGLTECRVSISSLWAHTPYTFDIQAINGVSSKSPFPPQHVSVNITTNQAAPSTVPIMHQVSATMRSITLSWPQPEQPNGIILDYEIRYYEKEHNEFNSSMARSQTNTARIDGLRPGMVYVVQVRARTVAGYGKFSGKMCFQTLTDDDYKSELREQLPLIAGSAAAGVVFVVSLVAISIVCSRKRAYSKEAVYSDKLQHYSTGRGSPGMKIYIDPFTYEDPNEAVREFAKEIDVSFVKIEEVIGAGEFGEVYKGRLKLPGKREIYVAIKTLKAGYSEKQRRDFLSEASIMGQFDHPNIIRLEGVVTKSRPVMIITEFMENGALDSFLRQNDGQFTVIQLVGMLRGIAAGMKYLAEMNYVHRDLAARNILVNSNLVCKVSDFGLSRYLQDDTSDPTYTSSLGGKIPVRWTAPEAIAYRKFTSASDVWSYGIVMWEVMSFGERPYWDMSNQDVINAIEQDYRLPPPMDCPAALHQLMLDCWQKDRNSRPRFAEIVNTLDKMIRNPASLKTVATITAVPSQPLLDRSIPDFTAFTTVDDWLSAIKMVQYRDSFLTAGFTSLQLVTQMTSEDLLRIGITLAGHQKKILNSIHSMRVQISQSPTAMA

[10] = target: Ephrin type-A receptor 5 (Homo sapiens) (UniProt P54756); test: Selectivity interaction (Kinase panel (Invitrogen)) EUB0000639a EPHA5; settings: at 200 nM
Chain of Ephrin type-A receptor 5 (Homo sapiens) (P54756 whole entry): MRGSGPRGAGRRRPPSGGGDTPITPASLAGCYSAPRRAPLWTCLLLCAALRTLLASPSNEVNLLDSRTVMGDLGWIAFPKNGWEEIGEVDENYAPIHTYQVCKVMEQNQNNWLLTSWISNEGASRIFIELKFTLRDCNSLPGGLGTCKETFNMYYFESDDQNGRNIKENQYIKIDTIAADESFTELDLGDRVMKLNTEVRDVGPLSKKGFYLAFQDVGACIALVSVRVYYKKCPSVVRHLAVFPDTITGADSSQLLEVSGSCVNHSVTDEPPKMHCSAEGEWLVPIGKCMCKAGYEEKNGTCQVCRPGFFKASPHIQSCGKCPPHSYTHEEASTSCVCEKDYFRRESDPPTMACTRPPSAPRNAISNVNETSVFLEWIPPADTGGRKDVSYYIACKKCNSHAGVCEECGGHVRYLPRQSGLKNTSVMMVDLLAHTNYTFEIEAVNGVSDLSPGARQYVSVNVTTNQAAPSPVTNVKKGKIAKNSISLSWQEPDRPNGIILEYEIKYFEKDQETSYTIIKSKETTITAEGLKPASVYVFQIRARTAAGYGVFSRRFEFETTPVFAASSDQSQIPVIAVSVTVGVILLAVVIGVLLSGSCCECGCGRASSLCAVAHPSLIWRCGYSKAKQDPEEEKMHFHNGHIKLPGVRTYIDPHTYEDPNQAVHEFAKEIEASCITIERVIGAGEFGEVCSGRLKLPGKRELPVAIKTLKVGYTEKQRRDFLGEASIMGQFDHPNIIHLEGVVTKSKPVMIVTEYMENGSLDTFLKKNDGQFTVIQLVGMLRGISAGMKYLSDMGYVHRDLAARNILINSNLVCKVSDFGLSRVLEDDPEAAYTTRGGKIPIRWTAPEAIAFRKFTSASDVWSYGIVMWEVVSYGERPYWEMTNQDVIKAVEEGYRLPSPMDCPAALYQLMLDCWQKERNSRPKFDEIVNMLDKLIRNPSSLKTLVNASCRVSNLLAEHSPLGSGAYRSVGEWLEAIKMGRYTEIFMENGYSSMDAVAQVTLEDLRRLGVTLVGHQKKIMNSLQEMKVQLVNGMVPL

[11] = target: Ephrin type-A receptor 7 (Homo sapiens) (UniProt Q15375); test: Selectivity interaction (Kinase panel (Invitrogen)) EUB0000639a EPHA7; settings: at 200 nM
[12] = tested on: Tyrosine-protein kinase ABL1 (Homo sapiens), P00519 [Q252H]; test: Selectivity interaction (KinomeScan (DiscoverX)) EUB0000655a ABL1; settings: at 10 µM
[13] = target: Tyrosine-protein kinase JAK1 (Homo sapiens, UniProt P23458); test: Selectivity interaction (KinomeScan (DiscoverX)) EUB0000092b JAK1; settings: at 10 µM
Chain of Tyrosine-protein kinase JAK1 (P23458 whole entry): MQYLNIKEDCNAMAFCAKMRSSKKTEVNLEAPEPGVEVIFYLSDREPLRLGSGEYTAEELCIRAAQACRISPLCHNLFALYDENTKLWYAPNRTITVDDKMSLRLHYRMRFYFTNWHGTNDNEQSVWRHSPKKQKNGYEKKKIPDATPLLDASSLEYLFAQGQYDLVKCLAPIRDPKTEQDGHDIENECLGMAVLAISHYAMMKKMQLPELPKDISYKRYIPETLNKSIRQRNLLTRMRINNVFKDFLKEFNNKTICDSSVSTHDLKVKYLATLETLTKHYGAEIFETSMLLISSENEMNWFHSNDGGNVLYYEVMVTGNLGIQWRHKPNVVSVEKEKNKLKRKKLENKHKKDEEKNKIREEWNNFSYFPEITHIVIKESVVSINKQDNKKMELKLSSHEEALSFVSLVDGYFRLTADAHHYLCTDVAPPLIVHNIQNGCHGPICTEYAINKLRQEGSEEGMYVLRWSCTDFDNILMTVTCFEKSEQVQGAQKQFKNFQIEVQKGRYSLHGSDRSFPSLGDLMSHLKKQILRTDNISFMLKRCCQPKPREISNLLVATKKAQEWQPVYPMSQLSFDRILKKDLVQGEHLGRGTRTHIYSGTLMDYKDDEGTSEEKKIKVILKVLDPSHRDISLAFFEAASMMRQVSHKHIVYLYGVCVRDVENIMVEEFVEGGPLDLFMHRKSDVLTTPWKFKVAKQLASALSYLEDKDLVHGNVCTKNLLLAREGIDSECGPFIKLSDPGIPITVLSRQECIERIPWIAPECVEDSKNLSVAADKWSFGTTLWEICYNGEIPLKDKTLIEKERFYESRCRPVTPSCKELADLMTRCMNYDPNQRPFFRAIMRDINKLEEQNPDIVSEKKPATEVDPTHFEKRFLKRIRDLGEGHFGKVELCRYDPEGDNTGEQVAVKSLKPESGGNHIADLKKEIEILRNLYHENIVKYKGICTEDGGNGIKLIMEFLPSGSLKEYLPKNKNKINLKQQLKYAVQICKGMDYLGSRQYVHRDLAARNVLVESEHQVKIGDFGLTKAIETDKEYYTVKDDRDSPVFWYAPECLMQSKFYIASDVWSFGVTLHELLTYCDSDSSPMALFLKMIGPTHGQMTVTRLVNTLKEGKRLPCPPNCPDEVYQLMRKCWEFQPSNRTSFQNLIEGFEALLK

COc1cc(N(C)c2ccnc3ccc(C(F)(F)F)cc23)cc(OC)c1OC
% binding [1]: 96%

Nc1cnc(N2CCc3cc(S(=O)(=O)Nc4c(F)cc(Cl)cc4F)cc(N4CCCC4=O)c32)nc1 [TP-020n]
% of control [2]: 78%

O=C(NOC[C@H](O)CO)c1ccc(F)c(F)c1Nc1ccc(I)cc1F
% of control [3]: 88%

Cc1cc([C@@H](C)Nc2ccccc2C(=O)O)c2nc(N3CCOCC3)cc(=O)n2c1 [AZD-6482]
% of control [4]: 100%

CC(=O)c1cc(-c2ccccc2OCC2CC2)c2ncccn12
% of control [5]: 87%

N#Cc1cccc(-c2c[nH]c3ncnc(N4CCOCC4)c23)c1
% of control [6]: 100%
% of control (Ephrin type-A receptor 4): 100%

CNC(=O)Nc1ccc(-c2nc(N3CC4CCC(C3)O4)c3cnn(C4CCC5(CC4)OCCO5)c3n2)cc1
% of inhibition [7]: -1%

CC[C@@H]1[C@H](F)C(=O)N[C@@H]1COc1nccc2cc(C(N)=O)c(OC)cc12 [ZIMLOVISERTIB]
% of inhibition ([8]; at 0.01 µM): 10.7%
% of inhibition ([8]; at 0.04 µM): 27.8%
% of inhibition ([8]; at 0.2 µM): 22.2%
% of inhibition ([8]; at 1 µM): 67.2%
% of inhibition ([8]; at 5 µM): > 94%
% of inhibition [9]: 1.6%
% of inhibition [10]: -0.246%
% of inhibition [11]: -7.96%

CN(C)CCOc1ccc(-c2nc(-c3ccncc3)c(-c3ccc4c(c3)CC/C4=N\O)[nH]2)cc1
% of control [12]: 3.8%

CCC(=O)N1CCN(c2ccc(-n3c(=O)ccc4cnc5ccc(-c6cnc7ccccc7c6)cc5c43)cc2C(F)(F)F)CC1
% of control [13]: 82%
